Positions count from the first letter of the chain named. Names and notes keep the numbering of the source.
T1: full-length AsphyA (Avena sativa, UniProt P06593)
T1 construct: Full-length phytochrome genes of AsPHYA; made in house; host or cells: Pichia pastoris GS115
T1 sequence (P06593 1-1129): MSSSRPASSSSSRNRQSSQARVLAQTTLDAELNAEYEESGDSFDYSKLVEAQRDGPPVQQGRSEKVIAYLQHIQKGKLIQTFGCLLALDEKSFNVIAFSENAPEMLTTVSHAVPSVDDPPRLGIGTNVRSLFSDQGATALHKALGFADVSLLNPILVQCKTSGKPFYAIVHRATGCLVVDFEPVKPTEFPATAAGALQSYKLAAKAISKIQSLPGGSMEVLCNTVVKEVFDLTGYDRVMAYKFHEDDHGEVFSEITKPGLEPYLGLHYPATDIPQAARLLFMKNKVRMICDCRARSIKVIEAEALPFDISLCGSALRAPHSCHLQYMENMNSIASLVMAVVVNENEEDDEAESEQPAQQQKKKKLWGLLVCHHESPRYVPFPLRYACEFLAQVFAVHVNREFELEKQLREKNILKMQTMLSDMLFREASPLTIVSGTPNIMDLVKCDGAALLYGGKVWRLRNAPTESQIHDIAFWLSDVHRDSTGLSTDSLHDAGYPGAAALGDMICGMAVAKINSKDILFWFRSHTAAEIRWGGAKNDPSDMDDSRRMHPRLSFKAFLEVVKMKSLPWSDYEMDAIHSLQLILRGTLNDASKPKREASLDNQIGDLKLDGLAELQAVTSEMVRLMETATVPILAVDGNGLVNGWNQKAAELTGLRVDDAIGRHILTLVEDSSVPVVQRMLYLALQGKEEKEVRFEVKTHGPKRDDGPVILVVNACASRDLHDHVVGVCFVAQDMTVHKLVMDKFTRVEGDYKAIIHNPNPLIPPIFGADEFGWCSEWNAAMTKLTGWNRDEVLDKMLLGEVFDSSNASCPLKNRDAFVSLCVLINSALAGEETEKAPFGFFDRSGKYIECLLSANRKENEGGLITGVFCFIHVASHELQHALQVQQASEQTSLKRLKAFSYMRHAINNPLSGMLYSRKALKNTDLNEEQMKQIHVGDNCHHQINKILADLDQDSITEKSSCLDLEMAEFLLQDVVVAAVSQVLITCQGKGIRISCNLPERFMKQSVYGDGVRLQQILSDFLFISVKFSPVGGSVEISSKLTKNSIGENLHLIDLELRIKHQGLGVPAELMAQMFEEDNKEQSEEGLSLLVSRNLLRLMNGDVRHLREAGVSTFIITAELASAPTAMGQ

T2: photosensory core of AsphyA (66-610) (Avena sativa, UniProt P06593)
T2 construct: the PAS-GAF-PHY photosensory core (66–610aa) were also cloned into pPIC3.5K; made in house; host or cells: Pichia pastoris GS115
T2 sequence (P06593 66-610): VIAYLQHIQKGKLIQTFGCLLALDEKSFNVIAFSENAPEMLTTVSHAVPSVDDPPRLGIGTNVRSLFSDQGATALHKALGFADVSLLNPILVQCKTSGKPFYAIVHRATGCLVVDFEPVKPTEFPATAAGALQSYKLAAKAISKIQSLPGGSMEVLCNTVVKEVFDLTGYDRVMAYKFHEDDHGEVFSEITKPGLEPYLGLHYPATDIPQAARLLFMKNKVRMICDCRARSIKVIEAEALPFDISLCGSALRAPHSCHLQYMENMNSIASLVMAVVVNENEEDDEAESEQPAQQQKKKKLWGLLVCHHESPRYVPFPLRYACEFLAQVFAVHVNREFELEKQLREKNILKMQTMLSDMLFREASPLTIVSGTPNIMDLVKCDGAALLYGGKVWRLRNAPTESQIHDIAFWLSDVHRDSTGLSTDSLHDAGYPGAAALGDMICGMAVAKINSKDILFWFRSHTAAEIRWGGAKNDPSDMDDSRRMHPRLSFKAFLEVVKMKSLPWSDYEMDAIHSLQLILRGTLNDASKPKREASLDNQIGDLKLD

B1: Avena sativa phytochrome A, full-length wild type (natural protein, UniProt P06593 1-1129, looked up)
chain: T1 sequence (P06593 1-1129)
modifications: phycocyanobilin chromophore assembled (chromophore-binding site C322)
notes: Avena sativa (oat) phytochrome A, full-length gene AsPHYA; 1129 residues by the printed construct limits (66-1129aa); Used as Pr (far-red irradiated) and Pfr (red irradiated) forms; also called AsphyA; FL-AsphyA; source: phycocyanobilin added in vitro
B2: AsphyA K411L, full length (natural protein, Avena sativa, UniProt P06593 1-1129, looked up)
chain: T1 sequence (P06593 1-1129) with K411L
modifications: phycocyanobilin chromophore assembled
notes: Avena sativa phytochrome A, full length, with K411L; source: phycocyanobilin added in vitro
B3: AsphyA D422R, full length (natural protein, Avena sativa, UniProt P06593 1-1129, looked up)
chain: T1 sequence (P06593 1-1129) with D422R
modifications: phycocyanobilin chromophore assembled
notes: Avena sativa phytochrome A, full length, with D422R; source: phycocyanobilin added in vitro
B4: AsphyA T418D, full length (natural protein, Avena sativa, UniProt P06593 1-1129, looked up)
chain: T1 sequence (P06593 1-1129) with T418D
modifications: phycocyanobilin chromophore assembled
notes: Avena sativa phytochrome A, full length, with T418D; source: phycocyanobilin added in vitro
B5: GST/strep-fused Arabidopsis PIF4 (natural protein, UniProt Q8W2F3 1-430, looked up)
chain: MEHQGWSFEENYSLSTNRRSIRPQDELVELLWRDGQVVLQSQTHREQTQTQKQDHHEEALRSSTFLEDQETVSWIQYPPDEDPFEPDDFSSHFFSTMDPLQRPTSETVKPKSSPEPPQVMVKPKACPDPPPQVMPPPKFRLTNSSSGIRETEMEQYSVTTVGPSHCGSNPSQNDLDVSMSHDRSKNIEEKLNPNASSSSGGSSGCSFGKDIKEMASGRCITTDRKRKRINHTDESVSLSDAIGNKSNQRSGSNRRSRAAEVHNLSERRRRDRINERMKALQELIPHCSKTDKASILDEAIDYLKSLQLQLQVMWMGSGMAAAAASAPMMFPGVQPQQFIRQIQSPVQLPRFPVMDQSAIQNNPGLVCQNPVQNQIISDRFARYIGGFPHMQAATQMQPMEMLRFSSPAGQQSQQPSSVPTKTTDGSRLDH
notes: Arabidopsis PIF4 (NM_180050); not shown: GST, N-terminal, kept

Columns and labels:
T418D AsphyA mutant = target: T3, T418D AsphyA mutant (Avena sativa, UniProt P06593, T418D); experiment: Binding parameters of ATP by Scatchard plot using BODIPY-FL-ATP
T3 construct: After preparing purified full-length AsphyA mutants; made in house; host or cells: Pichia pastoris GS115
T3 sequence (P06593 whole entry T418D): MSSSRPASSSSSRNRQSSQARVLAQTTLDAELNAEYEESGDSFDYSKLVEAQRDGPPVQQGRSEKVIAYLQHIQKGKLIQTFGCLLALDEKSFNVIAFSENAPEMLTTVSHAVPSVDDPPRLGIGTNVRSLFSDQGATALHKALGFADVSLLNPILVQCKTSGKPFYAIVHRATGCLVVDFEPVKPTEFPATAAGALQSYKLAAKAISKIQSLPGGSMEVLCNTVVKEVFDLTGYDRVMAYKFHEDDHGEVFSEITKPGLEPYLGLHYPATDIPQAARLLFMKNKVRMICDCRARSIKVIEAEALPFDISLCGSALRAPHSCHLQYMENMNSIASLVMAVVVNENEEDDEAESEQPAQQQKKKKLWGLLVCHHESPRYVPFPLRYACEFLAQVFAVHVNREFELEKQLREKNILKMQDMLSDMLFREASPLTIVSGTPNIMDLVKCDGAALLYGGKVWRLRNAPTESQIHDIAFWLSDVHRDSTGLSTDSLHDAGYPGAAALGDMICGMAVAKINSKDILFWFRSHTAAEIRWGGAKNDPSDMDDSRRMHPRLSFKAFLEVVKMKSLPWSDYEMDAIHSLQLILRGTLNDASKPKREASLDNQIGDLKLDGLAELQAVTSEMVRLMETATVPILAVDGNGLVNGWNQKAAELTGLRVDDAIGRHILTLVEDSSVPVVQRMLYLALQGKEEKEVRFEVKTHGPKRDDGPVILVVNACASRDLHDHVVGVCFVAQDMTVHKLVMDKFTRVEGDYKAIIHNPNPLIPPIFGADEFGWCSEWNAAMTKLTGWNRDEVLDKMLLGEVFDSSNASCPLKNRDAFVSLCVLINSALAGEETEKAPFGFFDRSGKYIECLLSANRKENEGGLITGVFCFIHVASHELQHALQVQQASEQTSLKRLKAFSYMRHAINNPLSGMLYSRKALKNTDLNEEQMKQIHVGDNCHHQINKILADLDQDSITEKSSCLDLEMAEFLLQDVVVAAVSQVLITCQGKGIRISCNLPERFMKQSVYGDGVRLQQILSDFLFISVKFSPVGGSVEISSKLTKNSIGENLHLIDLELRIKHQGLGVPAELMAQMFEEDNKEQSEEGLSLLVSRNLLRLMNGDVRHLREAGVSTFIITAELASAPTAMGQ
Method: (§1) To estimate dissociation constant (Kd) and the number of binding sites (n) of ATP in AsphyA proteins, an ATP analogue BODIPY-FL-ATP (BODIPY FL 2′-(or-3′)-O-(N-(2-aminoethyl)urethane) adenosine triphosphate; Molecular Probes) was used. 0.5 μM AsphyA proteins were incubated with increasing concentration of BODIPY-FL-ATP (0.5–5 μM) for 10 min at 30 °C, and free (unbound) ATP analogue was separated from the ATP analogue-protein complex by using Amicon Ultra Centrifugal Filter with MWCO of 10,000 Da for 5 min at 4,000g. The spectrophotometric absorbance was then measured to determine the BODIPY-FL-ATP concentrations within flow-through and the complex solutions by using Shimadzu UV-1800 spectrophotometer. […] The concentrations of BODIPY-FL-ATP were also double-checked by measuring the emission intensity of BODIPY fluorophore at the excitation wavelength of 500 nm and emission wavelength of 515 nm. The fluorescence of free BODIPY-FL-ATP in the absence of any protein component was used as a linear standard curve. The Kd and n values were then calculated by a Scatchard plot of r/[BODIPY-FL-ATP]free versus r, where r is the molar ratio of [BODIPY-FL-ATP]bound to [AsphyA]total.
(§2) Supplementary Figure 12. Determination of binding parameters of ATP in AsphyA proteins. The number of binding sites (n) and dissociation constant (Kd) of ATP in AsphyA proteins were determined by Scatchard plots using an ATP analogue, BODIPY-FL-ATP (BODIPY® FL 2′-(or-3′)-O-(N-(2-aminoethyl)urethane) adenosine triphosphate). The n and Kd values were calculated from the slopes (-1/Kd) and x-axis intercepts (n) of the Scatchard plot of r/[BODIPY-FL-ATP]free versus r, where r was the molar ratio of [BODIPY-FL-ATP]bound to [AsphyA]total. The n values of full-length (FL) AsphyA and photosensory core (66-610) were both calculated at around one per polypeptide, and the Kd values were calculated at approximately 0.87 × 10^-6 M for FL-AsphyA, 0.72 × 10^-6 M for […]
(§3) level, possibly due to too low ATP binding.
(§4) (1 picture or pasted object on this page, not shown here)

full-length AsphyA = target: T1, full-length AsphyA; experiment: as above
Method: as §1, §2, §3, §4

K411L AsphyA mutant = target: T4, K411L AsphyA mutant (Avena sativa, UniProt P06593, K411L); experiment: as above
T4 construct: After preparing purified full-length AsphyA mutants; made in house; host or cells: Pichia pastoris GS115
T4 sequence (P06593 whole entry K411L): as the sequence (P06593 whole entry T418D) above, with K411L, D418T counted along it
Method: as §1, §2, §3, §4

[1] = target: T2, photosensory core of AsphyA (66-610); experiment: as above
Method: as §1, §2, §3, §4

D422R AsphyA mutant = target: T5, D422R AsphyA mutant (Avena sativa, UniProt P06593, D422R); experiment: as above; settings: Scatchard plot with BODIPY-FL-ATP; result in words
T5 construct: After preparing purified full-length AsphyA mutants; made in house; host or cells: Pichia pastoris GS115
T5 sequence (P06593 whole entry D422R): as the sequence (P06593 whole entry T418D) above, with D418T, D422R counted along it
Method: as §1, §2, §3, §4

[2] = target: the molecule itself; experiment: SEC; size-exclusion chromatography of purified full-length AsphyA proteins; molecular masses estimated
[3] = target: B1; experiment: pull-down; GST/strep-fused interacting protein (1.0 μg) held on glutathione resin, phytochrome (1.0 μg) in solution, Pr and Pfr forms both tested; 60 min at 4 °C in pull-down buffer (100 mM Tris-HCl pH 7.8, 1 mM EDTA, 150 mM NaCl, 100 μg/ml BSA); western blot with oat22 and anti-GST; settings: both partners purified
[4] = Scatchard plot with BODIPY-FL-ATP
[5] = Scatchard plot, 0.5 μM protein, BODIPY-FL-ATP 0.5–5 μM, 10 min at 30 °C, read-out: dissociation constant (Kd) of ATP

In the case of CC1=CC(C)=[N+]2C1=Cc1ccc(CCC(=O)NCCNC(=O)O[C@H]3[C@@H](O)[C@H](n4cnc5c(N)ncnc54)O[C@@H]3COP(=O)(O)OP(=O)(O)OP(=O)(O)O)n1[B-]2(F)F [BODIPY-FL-ATP, BODIPY FL 2′-(or-3′)-O-(N-(2-aminoethyl)urethane) adenosine triphosphate], the Kd (T418D AsphyA mutant) is reported as about 4760 nM, the “number of binding sites (n) of ATP” value (full-length AsphyA; [4]) is reported as “approximately one” and the Kd (full-length AsphyA; [5]) is reported as about 870 nM. For the same molecule, the Kd (K411L AsphyA mutant) was about 1320 nM, the “number of binding sites (n) of ATP” value [1, 4] was “approximately one” and the Kd [1, 5] was 720 nM. The “dissociation constant (Kd) of ATP” value (D422R AsphyA mutant) was “unable to obtain the Kd value”.

B1: binds [2].

B2 was tested, and the “stoichiometry N” value [2] was 2.

B3 was tested, and the “stoichiometry N” value [2] was 2.

In the case of B4, the “stoichiometry N” value [2] is reported as 2.

B5: binds [3].

— PMC4869175, “Evidence that phytochrome functions as a protein kinase in plant light signalling” (Nature Communications, 2016)
